Results published in US6689803B2, “Compositions and methods for treating surgical adhesions” (Angiotech Pharmaceuticals, Inc., priority 1996, dated 2004).
Where two headings read alike, the source gives them in different places.

Experiments:
[1] = test system: neutrophils; test: Neutrophil chemiluminescence assay (opsonized CPPD crystals or zymosan); assay type: cell-based, human; conditions: Homo sapiens, Neutrophil, 28 μM, read-out: inhibition of the peak chemiluminescence response
Protocol: (§1) All experiments that studied neutrophil responses to crystals or zymosan in the presence of paclitaxel were performed using plasma opsonized CPPD or zymosan. Opsonization of crystals or zymosan was done with 50% heparinized plasma at a concentration of 75 mg of CPPD or 12 mg of zymosan per ml of 50% plasma Crystals or zymosan were incubated with plasma for 30 minutes at 37° C. and then washed in excess HBSS.
(§2) Neutrophil viability and purity was always greater than 90%.
A stock solution of LY290181 at 100 μM in HBSS was freshly prepared.
All chemiluminescence studies were performed at a cell concentration of 5,000,000 cells/ml in HBSS with CPPD (50 mg/ml). In all experiments 0.5 ml of cells was added to 25 mg of CPPD or 0.5 mg of zymosan in 1.5 ml capped Eppendorf tubes. 10 μl of luminol dissolved in 25% DMSO in HBSS was added to a final concentration of 1 μM and the samples were mixed to initiate neutrophil activation by the crystals or zymosan. Chemiluminescence was monitored using an LKB Luminometer (Model 1250) at 37° C. for 20 minutes with shaking immediately prior to measurements to resuspend the crystals or zymosan. Control tubes contained cells, drug and luminol (crystals absent).

[2] = test system: neutrophils; test: Superoxide anion generation by neutrophils; assay type: cell-based, human; conditions: 28 μM
Protocol: as §1, §2
Superoxide anion concentrations were measured using the superoxide dismutase inhibitable reduction of cytochrome C assay. Briefly, 25 mg of crystals or 0.5 mg of zymosan was placed in a 1.5 ml capped Eppendorf tube and warmed to 37° C. 0.5 ml of cells at 37° C. were added together with ferricytochrome C (final concentration 1.2 mg/ml) and the cells were activated by shaking the capped tubes. At appropriate times tubes were centrifuged at 10,000 g for 10 seconds and the supernatant collected for assay be measuring the absorbance of 550 nm. Control tubes were set up under the same conditions with the inclusion of superoxide dismutase at 600 units per ml.

[3] = test system: EOMA cells; test: Endothelial cell proliferation (trypan blue exclusion); assay type: cell-based; conditions: 48 hours
Protocol: Following the incubation, the number of viable cells were determined using the trypan blue exclusion assay. […] All cell toxicity assays were performed three times, and each individual measurement was made in triplicate.

[4] = test system: subcutaneous tumors; test: Subcutaneous tumors in mice treated with paste; assay type: in vivo; conditions: paclitaxel/gelatin/PCL paste

CC(=O)O[C@H]1C(=O)[C@@]2(C)[C@H]([C@H](OC(=O)c3ccccc3)[C@]3(O)C[C@H](OC(=O)[C@H](O)[C@@H](NC(=O)c4ccccc4)c4ccccc4)C(C)=C1C3(C)C)[C@]1(OC(C)=O)CO[C@@H]1C[C@@H]2O [paclitaxel]
inhibition at 28 µM ([1]; plasma opsonized CPPD): 52% | inhibition at 28 µM ([1]; plasma opsonized zymosan): 45% | inhibition of superoxide anion production ([2]; opsonized zymosan): less dramatic than the inhibition of CPPD activation but was significant at all times | superoxide anion production ([2]; plasma opsonized CPPD crystals): decrease in the amount of superoxide generated at all times | inhibition of endothelial cell proliferation ([3]; 10^−7M or greater): completely inhibited cell proliferation | inhibition at 0.01 µM ([3]; Endothelial cell, 10^−8M): > 50% | tumor mass [4]: significantly reduced the tumor mass
